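These data come from cells grown in 96-well plates and exposed to compound for 48 hours at five concentrations. At the TGI there is no net growth.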
What was measured:
Experiment in all cases: NCI anticancer screen, dose series, 48 h
SN12C renal = test system: SN12C renal
UACC-257 melanoma = test system: UACC-257 melanoma
RPMI-8226 leukemia = test system: RPMI-8226 leukemia
HS 578T breast = test system: HS 578T breast
SW-620 colon = test system: SW-620 colon
SF-268 CNS = test system: SF-268 CNS
RXF 393 renal = test system: RXF 393 renal
SK-MEL-28 melanoma = test system: SK-MEL-28 melanoma
MDA-MB-231 breast = test system: MDA-MB-231 breast
A549 NSCLC = test system: A549 NSCLC
HOP-62 NSCLC = test system: HOP-62 NSCLC
NCI-H522 lung = test system: NCI-H522 lung
SF-295 CNS = test system: SF-295 CNS
DU-145 prostate = test system: DU-145 prostate
NCI-H460 lung = test system: NCI-H460 lung
HCC-2998 colon = test system: HCC-2998 colon
T-47D breast = test system: T-47D breast
MDA-N = test system: MDA-N
KM12 colon = test system: KM12 colon
SK-OV-3 ovarian = test system: SK-OV-3 ovarian
MOLT-4 leukemia = test system: MOLT-4 leukemia
NCI/ADR-RES ovarian = test system: NCI/ADR-RES ovarian
PC-3 prostate = test system: PC-3 prostate
CAKI-1 renal = test system: CAKI-1 renal
MALME-3M melanoma = test system: MALME-3M melanoma
CCRF-CEM leukemia = test system: CCRF-CEM leukemia
OVCAR-3 ovarian = test system: OVCAR-3 ovarian
K-562 leukemia = test system: K-562 leukemia
MCF7 breast = test system: MCF7 breast
SR leukemia = test system: SR leukemia
OVCAR-5 ovarian = test system: OVCAR-5 ovarian
UACC-62 melanoma = test system: UACC-62 melanoma
HT29 colon = test system: HT29 colon
UO-31 renal = test system: UO-31 renal
SF-539 CNS = test system: SF-539 CNS
M14 melanoma = test system: M14 melanoma
TK-10 renal = test system: TK-10 renal
COLO 205 colon = test system: COLO 205 colon
MDA-MB-435 = test system: MDA-MB-435
HCT-15 colon = test system: HCT-15 colon
HCT-116 colon = test system: HCT-116 colon
OVCAR-4 ovarian = test system: OVCAR-4 ovarian
NCI-H23 lung = test system: NCI-H23 lung
NCI-H226 lung = test system: NCI-H226 lung
OVCAR-8 ovarian = test system: OVCAR-8 ovarian
ACHN renal = test system: ACHN renal
HOP-92 NSCLC = test system: HOP-92 NSCLC
SK-MEL-2 melanoma = test system: SK-MEL-2 melanoma
SK-MEL-5 melanoma = test system: SK-MEL-5 melanoma
U251 CNS = test system: U251 CNS
786-0 renal = test system: 786-0 renal
IGROV1 ovarian = test system: IGROV1 ovarian
BT-549 breast = test system: BT-549 breast
A498 renal = test system: A498 renal
EKVX NSCLC = test system: EKVX NSCLC
SNB-19 CNS = test system: SNB-19 CNS
HL-60(TB) leukemia = test system: HL-60(TB) leukemia
LOX IMVI melanoma = test system: LOX IMVI melanoma

For `COc1ccc2c(c1)c1c(n2CCN2CCOCC2)-c2cccc(OC)c2CC1`, the TGI (SN12C renal) was > 100 µM, the TGI (UACC-257 melanoma) was > 100 µM and the TGI (RPMI-8226 leukemia) was 68.1 µM. For the same compound, the TGI (HS 578T breast) was > 100 µM, the TGI (SW-620 colon) was > 100 µM and the TGI (SF-268 CNS) was > 100 µM. For the same compound, the TGI (RXF 393 renal) was > 100 µM, the TGI (SK-MEL-28 melanoma) was > 100 µM and the TGI (MDA-MB-231 breast) was > 100 µM. The TGI (A549 NSCLC) was > 100 µM, the TGI (HOP-62 NSCLC) was > 100 µM and the TGI (NCI-H522 lung) was 89 µM. For the same compound, the TGI (SF-295 CNS) was > 100 µM, the TGI (DU-145 prostate) was > 100 µM and the TGI (NCI-H460 lung) was > 100 µM. The TGI (HCC-2998 colon) was 63.4 µM, the TGI (T-47D breast) was > 100 µM and the TGI (MDA-N) was > 100 µM. For the same compound, the TGI (KM12 colon) was 53.1 µM, the TGI (SK-OV-3 ovarian) was > 100 µM and the TGI (MOLT-4 leukemia) was 76.7 µM. For the same compound, the TGI (NCI/ADR-RES ovarian) was > 100 µM, the TGI (PC-3 prostate) was > 100 µM and the TGI (CAKI-1 renal) was > 100 µM. For the same compound, the TGI (MALME-3M melanoma) was 66.3 µM, the TGI (CCRF-CEM leukemia) was 56.8 µM and the TGI (OVCAR-3 ovarian) was > 100 µM. For the same compound, the TGI (K-562 leukemia) was > 100 µM, the TGI (MCF7 breast) was 77.3 µM and the TGI (SR leukemia) was 35.3 µM. The TGI (OVCAR-5 ovarian) was > 100 µM, the TGI (UACC-62 melanoma) was > 100 µM and the TGI (HT29 colon) was 32.2 µM. The TGI (UO-31 renal) was > 100 µM, the TGI (SF-539 CNS) was > 100 µM and the TGI (M14 melanoma) was > 100 µM. The TGI (TK-10 renal) was > 100 µM, the TGI (COLO 205 colon) was 28.5 µM and the TGI (MDA-MB-435) was > 100 µM. For the same compound, the TGI (HCT-15 colon) was > 100 µM, the TGI (HCT-116 colon) was > 100 µM and the TGI (OVCAR-4 ovarian) was > 100 µM. The TGI (NCI-H23 lung) was > 100 µM, the TGI (NCI-H226 lung) was 52.9 µM and the TGI (OVCAR-8 ovarian) was > 100 µM. The TGI (ACHN renal) was > 100 µM, the TGI (HOP-92 NSCLC) was > 100 µM and the TGI (SK-MEL-2 melanoma) was > 100 µM. For the same compound, the TGI (SK-MEL-5 melanoma) was > 100 µM, the TGI (U251 CNS) was > 100 µM and the TGI (786-0 renal) was > 100 µM. For the same compound, the TGI (IGROV1 ovarian) was > 100 µM, the TGI (BT-549 breast) was > 100 µM and the TGI (A498 renal) was > 100 µM.

`CC[C@H](C)C1=C(OC(C)=O)[N@+]2([O-])Oc3ccc(-c4c(O)c(O)c(-c5ccc(OC(C)=O)cc5)c(OC(C)=O)c4OC(C)=O)cc3O[C@]2([C@@H](C)CC)C(=O)N1O` was tested, and the TGI (SN12C renal) was > 50 µM, the TGI (UACC-257 melanoma) was > 50 µM and the TGI (RPMI-8226 leukemia) was 25.5 µM. For the same compound, the TGI (HS 578T breast) was > 50 µM, the TGI (SW-620 colon) was 34.5 µM and the TGI (SF-268 CNS) was > 50 µM. For the same compound, the TGI (RXF 393 renal) was > 50 µM, the TGI (SK-MEL-28 melanoma) was > 50 µM and the TGI (MDA-MB-231 breast) was > 50 µM. The TGI (A549 NSCLC) was > 50 µM, the TGI (HOP-62 NSCLC) was > 50 µM and the TGI (EKVX NSCLC) was > 50 µM. For the same compound, the TGI (NCI-H522 lung) was 22.2 µM, the TGI (SF-295 CNS) was > 50 µM and the TGI (DU-145 prostate) was > 50 µM. For the same compound, the TGI (NCI-H460 lung) was > 50 µM, the TGI (SNB-19 CNS) was > 50 µM and the TGI (T-47D breast) was 37.7 µM. For the same compound, the TGI (MDA-N) was > 50 µM, the TGI (KM12 colon) was > 50 µM and the TGI (SK-OV-3 ovarian) was > 50 µM. The TGI (MOLT-4 leukemia) was > 50 µM, the TGI (NCI/ADR-RES ovarian) was > 50 µM and the TGI (PC-3 prostate) was > 50 µM. The TGI (CAKI-1 renal) was > 50 µM, the TGI (MALME-3M melanoma) was 46.6 µM and the TGI (OVCAR-3 ovarian) was 37.5 µM. The TGI (K-562 leukemia) was 29.2 µM, the TGI (MCF7 breast) was > 50 µM and the TGI (HL-60(TB) leukemia) was > 50 µM. The TGI (SR leukemia) was 39.7 µM, the TGI (OVCAR-5 ovarian) was > 50 µM and the TGI (UACC-62 melanoma) was 46.9 µM. The TGI (HT29 colon) was > 50 µM, the TGI (UO-31 renal) was > 50 µM and the TGI (SF-539 CNS) was > 50 µM. The TGI (LOX IMVI melanoma) was > 50 µM, the TGI (M14 melanoma) was > 50 µM and the TGI (TK-10 renal) was > 50 µM. For the same compound, the TGI (COLO 205 colon) was > 50 µM, the TGI (MDA-MB-435) was > 50 µM and the TGI (HCT-15 colon) was > 50 µM. The TGI (HCT-116 colon) was 19.5 µM, the TGI (OVCAR-4 ovarian) was 26.9 µM and the TGI (NCI-H23 lung) was > 50 µM. The TGI (OVCAR-8 ovarian) was > 50 µM, the TGI (ACHN renal) was > 50 µM and the TGI (HOP-92 NSCLC) was 23 µM. For the same compound, the TGI (SK-MEL-2 melanoma) was > 50 µM, the TGI (SK-MEL-5 melanoma) was > 50 µM and the TGI (U251 CNS) was > 50 µM. For the same compound, the TGI (786-0 renal) was 43.2 µM, the TGI (IGROV1 ovarian) was 44.7 µM and the TGI (BT-549 breast) was > 50 µM. For the same compound, the TGI (A498 renal) was > 50 µM.
